Series [1] in a line: LNP characterization of base editor LNP preparations (DLS diameter, PDI, encapsulation efficiency). Type of series: physicochemical. On the procedure: (§1) Lipid nanoparticle components are dissolved in 100% ethanol at specified lipid component molar ratios. mRNA encoding an adenine base editor and a chemically-modified sgRNA is dissolved at a mass ratio of 1:1 in 10 mM citrate, 100 mM NaCl, pH 4.0, resulting in a concentration of NA cargo of approximately 0.22 mg/mL. LNP preparations are formulated with molar ratios of either 50% Ionizable Lipid: 38.5% Cholesterol: 1.5% PEG2000-DMG: 10% DSPC or 47.5% Ionizable Lipid: 40% Cholesterol: 2.5% PEG2000-DMG: 10% DSPC both at a total lipid to NA molar ratio of 6.
(§2) LNP preparations are formed by microfluidic mixing of the lipid and NA solutions using a Precision Nanosystems NanoAssemblr Ignite Instrument, according to the manufacturer's protocol. A 3:1 ratio of aqueous to organic solvent is maintained during mixing using differential flow rates. After mixing, LNP preparations are collected, diluted in PBS (approximately 2:1 v/v), and further buffer exchange is conducted using dialysis in PBS at 4° C. for 8 to 24 hours against a 20 kDa filter. After this initial dialysis, each individual LNP preparation is characterized via dynamic light scattering (DLS) to measure size and polydispersity. pKa of a subpopulation of LNP preparations is measured via TNS assay. After dialysis, LNP preparations are sterile filtered using 0.22 micron sterile filter and stored at 4° C. for further use. In some embodiments, LNP preparations may be concentrated using 100 kDa Amicon filters per manufacturer's protocol.
DLS—LNP preparation hydrodynamic diameter and polydispersity index (PDI) is measured using high throughput dynamic light scattering (DLS) (DynaPro plate reader II, Wyatt). LNP preparations are diluted 1×PBS to an appropriate concentration and analyzed.
Concentration of NA is determined by Qubit microRNA kit (for siRNA) or HS RNA kit (for mRNA) per manufacturer's instructions. Encapsulation efficiency is determined by measuring unlysed and lysed LNPs.

The test system of a further series is PCSK9 target site. As to the kind of experiment: In vivo base editing with ABE mRNA and sgRNA targeting PCSK9. Set-up: species or system Balb/c mice. The settings on record: dose 0.03 MPK (mg total RNA/kg) IV, formulation ratio 47.5:40:2.5:10, liver, 4 days after dosing. On the procedure:
as §1, §2
(§3) Male Balb/C mice aged approximately 8-12 weeks are used in the experiments described herein. Each mouse is temporarily restrained, and LNP preparations are administered IV via tail vein injection. Age-matched mice are also used to administer vehicle (1×PBS) via tail vein injection as a control. Four to six days post-dose, tissues including liver, spleen, heart and muscle are collected (only liver and muscle (quardracept) are reported). Genomic DNA is isolated and fragmented and adapter-ligated using the Nextera DNA Flex Library Prep Kit (Illumina) using the 96-well plate Nextera indexing primers (Illumina), according to the manufacturer's instructions. Library size and concentration is confirmed by Fragment Analyzer (Agilent) and sent to Novogene for whole genome sequencing using an Illumina HiSeq.
For base editing, mRNA encoding an adenine base editor (ABE) and a guide RNA (sgRNA) targeting PCSK9 at 1:1 (mass ratio) are coencapsulated in LNP preparations as described herein. LNP preparations are administrated into Balb/c mice through tail vein injections at concentration of 0.03 mg total RNA/kg. […] Base editing is determined by performing targeted deep sequencing analysis at the PCSK9 target site using extracted genomic DNA.

The nature of series [2]: LNP preparation characterization (encapsulation efficiency, DLS size and polydispersity), barcoded screen LNPs. Type of series: physicochemical. The settings on record: LNP 47.5% ionizable lipid: 40% cholesterol: 2.5% PEG-2000 DMG: 10% DPSC, N/P 4.5-6; for AVG PDI / AVG Z Dia (nm): DLS. On the procedure:
Lipid nanoparticle components were dissolved in 100% ethanol at specified lipid component molar ratios. Nucleic acid (NA) cargo was dissolved in 10 mM citrate, 100 mM NaCl, pH 4.0, resulting in a concentration of NA cargo of approximately 0.22 mg/mL. In some embodiments, NA cargos included both a functional NA and a reporter barcode mixed at mass ratios of 1:10 to 10:1 functional NA to barcode. As described herein, a NA can be a siRNA, an anti-sense, an expressing DNA, or mRNA.
LNP preparations were prepared with 47.5% Ionizable Lipid (e.g., a compound provided herein): 40% cholesterol: 2.5% PEG-2000 DMG: 10% DPSC and an N/P ratio range of 4.5-6. LNP preparations were formed by microfluidic mixing of the lipid and NA solutions using Precision Nanosystems NanoAssemblr Spark or Benchtop series Instruments, according to the manufacturer's protocol.
A ratio of aqueous to organic solvent of approximately 2:1 or 3:1 was maintained during mixing using differential flow rates. After mixing, LNP preparations were collected, diluted in phosphate buffer saline (PBS) or Tris-buffered saline (TBS) (approximately 1:1 v/v). Further buffer exchange was conducted using dialysis in PBS or TBS at 4° C. for 4 to 24 hours against a 20 kDa filter. After this initial dialysis, each individual LNP preparation may be characterized via dynamic light scattering (DLS) to measure the size (e.g., diameter) and polydispersity. LNP preparations falling within specific diameter and polydispersity ranges were pooled, and further dialyzed against PBS or TBS at 4° C. for 1 to 4 hours against a 100 kDa dialysis cassette. After the second dialysis, LNP preparations were sterile filtered using 0.22 μm filter and stored at 4° C. for further use.

The test system of the next series is ALAS1 target site. In words: In vivo base editing with ABE mRNA and sgRNA targeting ALAS1. Set-up: species or system Balb/c mice. The settings on record: for Liver Editing A->G (%): 4 days after dosing. On the procedure:
as §1, §2, §3
For base editing, mRNA encoding an adenine base editor (ABE) and a guide RNA (sgRNA) targeting ALAS1 at 1:1 (mass ratio) are coencapsulated in LNP preparations as described herein. LNP preparations are administrated into Balb/c mice through tail vein injections at concentrations ranging from 0.05 to 3.0 mg/kg total RNA. At 4 days after dosing, mice are euthanized and liver, spleen and bone barrow are harvested. Base editing is determined by performing targeted deep sequencing analysis at the ALAS1 target site using extracted genomic DNA.

Setting [3] is: Table E LNPs, formulation ratio 47.5:40:2.5:10, ABE mRNA/PCSK9 sgRNA.
[4] abbreviates: Table C LNPs, formulation ratio 47.5:40:2.5:10, ABE mRNA/ALAS1 sgRNA.
Setting [5] is: Table D LNPs, formulation ratio 50:38.5:1.5:10, ABE mRNA/ALAS1 sgRNA.
Setting [6] is: dose 3 MPK IV, formulation ratio 50:38.5:1.5:10, quadricep muscle.

The text below walks through data of patent US20260176283A1, “IONIZABLE LIPIDS WITH LINEAR HEAD GROUPS” (Beam Therapeutics Inc., priority 2023, published 2026).

Regarding `CC/C=C\CCCC(CCC/C=C\CC)OC(=O)CCCCCC(=O)OCC(COC(=O)CCCCCC(=O)OC(CCC/C=C\CC)CCC/C=C\CC)COC(=O)OCCCN1CCCC1` [Compound (30), 1-[3-({7-Oxo-7-[(3Z,12Z)-pentadeca-3,12-dien-8-yloxy]heptanoyl}oxy)-2-[({[3-(pyrrolidin-1-yl)propoxy]carbonyl}oxy)methyl]propyl] 7-(3Z,12Z)-pentadeca-3,12-dien-8-yl heptanedioate], in series [1] (setting [3]), the “Diameter (nm)” value was 67.06 nm and the “EE (%)” value turned out to be 97.15%. Further, in the series on PCSK9 target site, the “Liver Editing A->G (%)” value amounted to 1.53%.

Take `C=CCCCC(CCCC=C)COC(=O)CCCCCC(=O)OCC(COC(=O)CCCCCC(=O)OCC(CCCC=C)CCCC=C)COC(=O)CCCN1CCCC1` [Compound (18), 1-(2-{[(7-Oxo-7-{[2-(pent-4-en-1-yl)hept-6-en-1-yl]oxy}heptanoyl)oxy]methyl}-3-{[4-(pyrrolidin-1-yl)butanoyl]oxy}propyl) 7-[2-(pent-4-en-1-yl)hept-6-en-1-yl] heptanedioate]: in series [2], the “AVG EE(%)” value turned out to be 98.2%, the “AVG PDI” value came out at 0.07 and the “AVG Z Dia (nm)” value worked out at 138.63 nm. Besides, in series [1] (setting [4]), the “Diameter (nm)” value worked out at 106 nm, the “EE (%)” value was determined as 93.9% and the “PDI (%)” value worked out at 16.9%. Further, in series [1] (setting [5]), the “Diameter (nm)” value is on record as 149.3 nm, the “EE (%)” value is on record as 88.58% and the “PDI (%)” value came out at 13.1%. In addition, the “Liver Editing A->G (%)” value in the series on ALAS1 target site (dose 0.1 MPK IV, formulation ratio 47.5:40:2.5:10, liver) is 0.99%. In addition, the “Quadrecept Editing A->G (%)” value in the series with ALAS1 target site (dose 0.1 MPK IV, formulation ratio 47.5:40:2.5:10, quadricep muscle) was found to be 0.29%. Further, the “Quadrecept Editing A->G (%)” value in the series with ALAS1 target site (setting [6]) is on record as 2.5%.

Regarding `CC/C=C\CCCC(CCC/C=C\CC)OC(=O)CCCCC(=O)OCC(COC(=O)CCCCC(=O)OC(CCC/C=C\CC)CCC/C=C\CC)COC(=O)CCCN1CCCC1` [Compound (12), 1-{2-[({6-Oxo-6-[(3Z,12Z)-pentadeca-3,12-dien-8-yloxy]hexanoyl}oxy)methyl]-3-{[4-(pyrrolidin-1-yl)butanoyl]oxy}propyl}6-(3Z,12Z)-pentadeca-3,12-dien-8-yl hexanedioate], in series [2], the “AVG EE(%)” value worked out at 63.6%, the “AVG PDI” value was determined as 0.12 and the “AVG Z Dia (nm)” value turned out to be 105.44 nm. For the same compound, in series [1] (setting [5]), the “Diameter (nm)” value was found to be 82.7 nm, the “EE (%)” value stood at 72.57% and the “PDI (%)” value was 17.4%. Also, the “Quadrecept Editing A->G (%)” value in the series with ALAS1 target site (setting [6]) turned out to be 0.22%.

Regarding `C=CCCCCCC(CCCCCC=C)OC(=O)CCCCCC(=O)OCC(COC(=O)CCCCCC(=O)OC(CCCCCC=C)CCCCCC=C)COC(=O)OCC1CCCN(CC)C1` (stereo not drawn) [Compound (25), O1-[2-[(1-ethyl-3-piperidyl)methoxycarbonyloxymethyl]-3-[7-(1-hept-6-enyloct-7-enoxy)-7-oxo-heptanoyl]oxy-propyl] O7-(1-hept-6-enyloct-7-enyl) heptanedioate], in series [2], the “AVG EE(%)” value is listed as 94.4% and the “AVG PDI” value came out at 0.12. In series [1] (setting [4]), the “Diameter (nm)” value stood at 75.47 nm, the “EE (%)” value is 99.1% and the “PDI (%)” value was determined as 1.2%. In series [1] (setting [5]), the “Diameter (nm)” value is given as 79.55 nm and the “EE (%)” value stood at 96.9%. In addition, the “Liver Editing A->G (%)” value in the series on ALAS1 target site (dose 0.05 MPK IV, formulation ratio 50:38.5:1.5:10, liver) is on record as 0.27%. For the same compound, in the series on ALAS1 target site (dose 3 MPK IV, formulation ratio 47.5:40:2.5:10, quadricep muscle), the “Quadrecept Editing A->G (%)” value is reported as 2.93%.

With `C=CCCCC(CCCC=C)OC(=O)CCCCCCC(=O)OCC(COC(=O)CCCCCCC(=O)OC(CCCC=C)CCCC=C)COC(=O)CCCN1CCCC1` [Compound (7), 1-[2-({[8-Oxo-8-(undeca-1,10-dien-6-yloxy)octanoyl]oxy}methyl)-3-{[4-(pyrrolidin-1-yl)butanoyl]oxy}propyl] 8-undeca-1,10-dien-6-yl octanedioate], in series [2], the “AVG EE(%)” value is 74.3% and the “AVG Z Dia (nm)” value is listed as 85.54 nm. Also, in series [1] (setting [5]), the “Diameter (nm)” value amounted to 121.2 nm, the “EE (%)” value amounted to 91.02% and the “PDI (%)” value is 11.8%. For the same compound, the “Quadrecept Editing A->G (%)” value in the series on ALAS1 target site (setting [6]) is given as 0.87%.

Turning to `CCCCCCCC(CCCCCCC)OC(=O)CCCCCC(=O)OCC(COC(=O)CCCCCC(=O)OC(CCCCCCC)CCCCCCC)COC(=O)CCCN1CCCC1` [Compound (21), O1-[2-[[7-(1-heptyloctoxy)-7-oxo-heptanoyl]oxymethyl]-3-(4-pyrrolidin-1-ylbutanoyloxy)propyl] O7-(1-heptyloctyl) heptanedioate], in series [2], the “AVG EE(%)” value was found to be 95.1%, the “AVG PDI” value amounted to 0.13 and the “AVG Z Dia (nm)” value is given as 75.95 nm. Moreover, in series [1] (setting [4]), the “Diameter (nm)” value is recorded as 62.08 nm, the “EE (%)” value came to 98.19% and the “PDI (%)” value amounted to 6%. Further, in the series on ALAS1 target site (dose 0.05 MPK IV, formulation ratio 47.5:40:2.5:10, liver), the “Liver Editing A->G (%)” value is 0.5%.

For the compound `C=CCCCC(CCCC=C)OC(=O)CCCCC(=O)OCC(COC(=O)CCCCC(=O)OC(CCCC=C)CCCC=C)COC(=O)CCCN1CCCC1` [Compound (33), 1-[2-({[6-Oxo-6-(undeca-1,10-dien-6-yloxy)hexanoyl]oxy}methyl)-3-{[4-(pyrrolidin-1-yl)butanoyl]oxy}propyl] 6-undeca-1,10-dien-6-yl hexanedioate], in series [2], the “AVG EE(%)” value came to 98.3%, the “AVG PDI” value is 0.10 and the “AVG Z Dia (nm)” value is recorded as 133.71 nm. For the same compound, in series [1] (setting [5]), the “Diameter (nm)” value is on record as 179.7 nm, the “EE (%)” value was 75.69% and the “PDI (%)” value stood at 23.4%. Further, in the series on ALAS1 target site (setting [6]), the “Quadrecept Editing A->G (%)” value stood at 0.1%.
